Measured values published in patent US4125531A, “2-Substituted-1-azabicyclo[2.2.2]octanes” (G. D. Searle & Co., priority 1977, dated 1978).
Where a name gives a salt, the structure may show the parent alone. Read-outs that look alike come from different tables or passages of the source.

Legend:
[1] = test system: castor oil-induced diarrhea; assay: Castor Oil-Induced Diarrhea in the Rat; assay type: in vivo, rat (adult Charles River male rats); conditions: po, read-out: ED50 ± S.E. (median effective dose) at 2 hours past castor oil administration
Method: Castor Oil-Induced Diarrhea in the Rat
Adult Charles River male rats are fasted in community cages for 24 hours prior to the test, with free access to water. The test compound is then administered intragastrically (suspended on 0.5% methyl cellulose) one hour prior to the intragastric adminstration of a dose of 1.0 ml. castor oil per rat. The rats are then observed for the presence or absence of diarrhea at hourly intervals for up to 8 hours past the castor oil adminstration. Using the method of Berkson (1953), the median effective dose (ED50) values are calculated at each hourly interval for the test compound.
The median effective dose at 2 hours past the castor oil adminstration for the following representative compounds of the present invention in the castor oil-induced diarrhea in the Rat test are: […]

[2] = test system: gastronintestinal motility; assay: Mouse Cecal Test (inhibition of gastrointestinal motility, charcoal in cecum); assay type: in vivo, mouse (male Charles River mice); conditions: po, read-out: ED50 ± S.E. (median effective dose), Mouse Cecal Test
From the text: The compounds of the present invention are useful in consequence of their valuable pharmacological properties. They are, for example, potent anti-diarrheal agents as evidenced by their ability to inhibit gastronintestinal motility as set out in the following tests:
The method used for this assay is a modification of the techniques previously described by Macht and BarbaGose, J. Amer. Pharm. Ass., 20, 558 (1931), and Janssen and Jageneau, J. Pharm. Pharmacol., 9, 381 (1957). Details are as follows:
A group of six, male Charles River mice weighing 20-25 g. which have been previously fasted for 24 hours are pretreated with the test compounds administered orally as a solution in water or suspended in 0.5% methyl cellulose. A constant volume of 10 ml./kg. is employed. Thirty minutes following administration of the test compounds, the animals are given a single oral dose of charcoal which consists of 0.2 ml. per mouse of 10% charcoal suspended in 1.0% methyl cellulose. Three and a half hours after charcoal administration, the animals are sacrificed and the cecum examined for the absence or presence of charcoal on an all-or-none basis.
The median effective dose (ED50) is then calculated for each compound using the logistic method of Berkson (1953).
The median effective dose ± standard Error ED50 ± SE) for the following representative compounds of the present invention in the Mouse Cecal Test are […]

[3] = IG, test compound one hour before 1.0 ml castor oil, 2 hours past castor oil
[4] = IG, test compound 30 minutes before charcoal, cecum examined 3.5 hours after charcoal

Structure (SMILES)	ED50 ([1]; 2 h) [mg/kg]	ED50 [2] [mg/kg]	ED50 [1, 3] [mg/kg]	ED50 [2, 4] [mg/kg]
CCCCCC(CC1CC2CCN1CC2)(c1ccccc1)c1ccccc1.O=C(O)/C=C\C(=O)O (centres unmarked) [2-(2,2-diphenylheptyl)-1-azabicyclo[2.2.2]octane maleate]	10.2 ± 1.43	5.84 ± 1.94	–	–
CC(C)=CCC(CC1CC2CCN1CC2)(c1ccccc1)c1ccccc1 (centres unmarked) [2-(5-methyl-2,2-diphenylhex-4-enyl)-1-azabicyclo[2.2.2]octane]	–	–	1.74 ± 0.53	1.45 ± 0.66
C=CCC(CC1CC2CCN1CC2)(c1ccccc1)c1ccccc1 (centres unmarked) [2-(2,2-diphenyl-4-pentenyl)-1-azabicyclo[2.2.2]octane]	–	–	1.13 ± 0.18	1.82 ± 0.45
CC(CC1CC2CCN1CC2)(c1ccccc1)c1ccccc1 (centres unmarked) [2-(2,2-diphenylpropyl)-1-azabicyclo[2.2.2]octane]	–	–	–	43.1 ± 15.5
CCCCCCC(CC1CC2CCN1CC2)(c1ccccc1)c1ccccc1.O=C(O)/C=C\C(=O)O (centres unmarked) [2-(2,2-diphenyloctyl)-1-azabicyclo[2.2.2]octane maleate]	–	20.7 ± 12.3	–	–
CCCCC(CC1CC2CCN1CC2)(c1ccccc1)c1ccccc1 (centres unmarked) [2-(2,2-diphenylhexyl)-1-azabicyclo[2.2.2]octane]	–	–	4.57 ± 0.21	8.74 ± 3.95
CCOC(=O)C1(c2ccccc2)CCN(CCC(C#N)(c2ccccc2)c2ccccc2)CC1 [Diphenoxylate . HCl, reference compound]	–	3.12 ± 1.29	–	–
